Literature values in paper PMC7395068, “The evolution of strategies to minimise the risk of human drug-induced liver injury (DILI) in drug discovery and development” (Archives of Toxicology, 2020).
Where two headings read alike, the source gives them in different places.

Details: cited from earlier work
[1] = binary in vivo DILI call given beside the severity category, ref Chen 2016
[2] = human DILI concern category (LTKB DILIrank), ref Chen 2016
[3] = binary in vivo human DILI call, ref Chen 2016
[4] = human DILI, LTKB DILIrank category, ref Chen 2016
[5] = LTKB DILIrank category, ref Chen 2016
[6] = binary DILI call, ref Chen 2016
[7] = binary human DILI assignment, ref Chen 2016

Molecule: CC(C)C[C@H](NC(=O)[C@H](CCCCN)NC(=O)CNC(=O)[C@H](CC(C)C)NC(=O)[C@@H](NC(=O)[C@@H]1CSSC[C@H](N)C(=O)N[C@@H](CO)C(=O)N[C@@H](CC(N)=O)C(=O)N[C@@H](CC(C)C)C(=O)N[C@@H](CO)C(=O)N[C@@H]([C@@H](C)O)C(=O)N1)C(C)C)C(=O)N[C@@H](CO)C(=O)N[C@@H](CCC(N)=O)C(=O)N[C@@H](CCC(=O)O)C(=O)N[C@@H](CC(C)C)C(=O)N[C@@H](Cc1c[nH]cn1)C(=O)N[C@@H](CCCCN)C(=O)N[C@@H](CC(C)C)C(=O)N[C@@H](CCC(N)=O)C(=O)N[C@H](C(=O)N[C@@H](Cc1ccc(O)cc1)C(=O)N1CCC[C@H]1C(=O)N[C@@H](CCCNC(=N)N)C(=O)N[C@H](C(=O)N[C@@H](CC(N)=O)C(=O)N[C@H](C(=O)NCC(=O)N[C@@H](CO)C(=O)NCC(=O)N[C@H](C(=O)N1CCC[C@H]1C(N)=O)[C@@H](C)O)[C@@H](C)O)[C@@H](C)O)[C@@H](C)O [calcitonin salmon]
- DILI +VE (5-8), DILI -VE (-4) (in vivo): -VE
- DILI severity category (in vivo): vNo-DILI-Concern

Molecule: romiplostim
- DILI +VE (5-8), DILI -VE (-4) (in vivo): -VE
- DILI severity category (in vivo): vNo-DILI-Concern

Molecule: CNC1=Nc2ccc(Cl)cc2C(c2ccccc2)=[N+]([O-])C1 [chlordiazepoxide]
- DILI +VE (5-8), DILI -VE (-4) (in vivo): +VE
- DILI severity category (in vivo): vLess-DILI-Concern

Molecule: pramlintide (KCNTATCATQRLANFLVHSSNNFGPILPPTNVGSNTY; chains of the INN, looked up)
- DILI +VE (5-8), DILI -VE (-4) (in vivo): -VE
- DILI severity category (in vivo): vNo-DILI-Concern

Molecule: CCCC(C)C1(CC)C(=O)NC(=O)NC1=O (centres unmarked) [pentobarbital]
- DILI +VE (5-8), DILI -VE (-4) [1]: -VE
- DILI severity category [2]: Ambiguous DILI-concern

Molecule: CN(C)c1cc(NC(=O)CNC(C)(C)C)c(O)c2c1C[C@H]1C[C@H]3[C@H](N(C)C)C(O)=C(C(N)=O)C(=O)[C@@]3(O)C(O)=C1C2=O [tigecycline]
- DILI +VE (5-8), DILI -VE (-4) [1]: -VE
- DILI severity category [2]: Ambiguous DILI-concern

Molecule: COc1cccc2c1[C@@H]1CN(CCCCn3c(=O)[nH]c4c(sc5ncc(-c6ccccc6)nc54)c3=O)C[C@@H]1CO2 [fiduxosin]
- DILI +VE (5-8), DILI -VE (-4) [3]: +VE
- DILI severity category [4]: vMost-DILI-Concern

Molecule: CNC[C@H](O)[C@@H](O)[C@H](O)[C@H](O)CO.CNC[C@H](O)[C@@H](O)[C@H](O)[C@H](O)CO.O=C([O-])CN(CCN(CC(=O)[O-])CC(=O)O)CCN(CC(=O)O)C(COCc1ccccc1)C(=O)[O-].[Gd+3] (centres unmarked) [gadobenate dimeglumine]
- DILI +VE (5-8), DILI -VE (-4) (in vivo): -VE
- DILI severity category (in vivo): vNo-DILI-Concern

Molecule: Nc1ncn([C@@H]2O[C@H](CO)[C@@H](O)[C@H]2O)c(=O)n1 [azacitidine]
- DILI severity category [5]: Ambiguous DILI-concern
- DILI +VE (5-8), DILI -VE (-4) [6]: -VE

Molecule: CO[C@H]1C[C@@H]2CC[C@@H](C)[C@@](O)(O2)C(=O)C(=O)N2CCCC[C@H]2C(=O)O[C@H]([C@H](C)C[C@@H]2CC[C@@H](OCCO)[C@H](OC)C2)CC(=O)[C@H](C)/C=C(\C)[C@@H](O)[C@@H](OC)C(=O)[C@H](C)C[C@H](C)/C=C/C=C/C=C/1C [everolimus]
- DILI +VE (5-8), DILI -VE (-4) [3]: -VE
- DILI severity category [4]: Ambiguous DILI-concern

Molecule: C[C@]12C=CC(=O)N[C@@H]1CC[C@@H]1[C@@H]2CC[C@]2(C)[C@@H](C(=O)Nc3cc(C(F)(F)F)ccc3C(F)(F)F)CC[C@@H]12 [dutasteride]
- DILI +VE (5-8), DILI -VE (-4) [3]: -VE
- DILI severity category [4]: vNo-DILI-Concern

Molecule: denileukin diftitox
- DILI +VE (5-8), DILI -VE (-4) [3]: -VE
- DILI severity category [4]: Ambiguous DILI-concern

Molecule: C[C@@H](O)[C@H]1C(=O)N2C(C(=O)O)=C(S[C@@H]3CN[C@H](C(=O)Nc4cccc(C(=O)O)c4)C3)[C@H](C)[C@H]12 [ertapenem]
- DILI +VE (5-8), DILI -VE (-4) [3]: -VE
- DILI severity category [4]: Ambiguous DILI-concern

Molecule: CCN(CCO)CCCC(C)Nc1ccnc2cc(Cl)ccc12 (centres unmarked) [hydroxychloroquine]
- DILI +VE (5-8), DILI -VE (-4) [3]: +VE
- DILI severity category [4]: vLess-DILI-Concern

Molecule: CN1CCC[C@@H]1Cc1c[nH]c2ccc(CCS(=O)(=O)c3ccccc3)cc12 [eletriptan]
- DILI +VE (5-8), DILI -VE (-4) [3]: -VE
- DILI severity category [4]: Ambiguous DILI-concern

Molecule: CN1CCCCC1CCN1c2ccccc2Sc2ccc([S+](C)[O-])cc21 (centres unmarked) [mesoridazine]
- DILI +VE (5-8), DILI -VE (-4) [1]: -VE
- DILI severity category [2]: Ambiguous DILI-concern

Molecule: CNC1(c2ccccc2Cl)CCCCC1=O (centres unmarked) [ketamine]
- DILI +VE (5-8), DILI -VE (-4) [3]: +VE
- DILI severity category [4]: vLess-DILI-Concern

Molecule: COc1cc([C@@H]2c3cc4c(cc3[C@@H](O[C@@H]3O[C@@H]5CO[C@@H](c6cccs6)O[C@H]5[C@H](O)[C@H]3O)[C@H]3COC(=O)[C@H]23)OCO4)cc(OC)c1O [teniposide]
- DILI +VE (5-8), DILI -VE (-4) [1]: +VE
- DILI severity category [2]: vLess-DILI-Concern

Molecule: bevacizumab
- DILI +VE (5-8), DILI -VE (-4) (in vivo): -VE
- DILI severity category (in vivo): vNo-DILI-Concern

Molecule: CC(=O)NO [acetohydroxamic acid]
- DILI +VE (5-8), DILI -VE (-4) (in vivo): -VE
- DILI severity category (in vivo): Ambiguous DILI-concern

Molecule: Clc1ccc(C(c2ccccc2Cl)C(Cl)Cl)cc1 (centres unmarked) [mitotane]
- DILI +VE (5-8), DILI -VE (-4) [1]: -VE
- DILI severity category [2]: vNo-DILI-Concern

Molecule: CNC[C@H](O)[C@@H](O)[C@H](O)[C@H](O)CO.CNC[C@H](O)[C@@H](O)[C@H](O)[C@H](O)CO.O=C([O-])CN(CCN(CC(=O)[O-])CC(=O)O)CCN(CC(=O)[O-])CC(=O)O.[Gd+3] [gadopentetate dimeglumine]
- DILI +VE (5-8), DILI -VE (-4) (in vivo): -VE
- DILI severity category (in vivo): vNo-DILI-Concern

Molecule: Cc1cc(C#N)cc(C)c1Oc1nc(Nc2ccc(C#N)cc2)nc(N)c1Br [etravirine]
- DILI +VE (5-8), DILI -VE (-4) [3]: +VE
- DILI severity category [4]: vMost-DILI-Concern

Molecule: O=C1NC(c2ccccc2)(c2ccccc2)C(=O)N1COP(=O)(O)O [fosphenytoin]
- DILI +VE (5-8), DILI -VE (-4) [3]: +VE
- DILI severity category [4]: vMost-DILI-Concern

Molecule: alemtuzumab
- DILI +VE (5-8), DILI -VE (-4) (in vivo): -VE
- DILI severity category (in vivo): vNo-DILI-Concern

Molecule: CCc1cc(C(N)=S)ccn1 [ethionamide]
- DILI +VE (5-8), DILI -VE (-4) [3]: +VE
- DILI severity category [4]: vLess-DILI-Concern

Molecule: COc1cc(C(=O)NCc2ccc(OCCN(C)C)cc2)cc(OC)c1OC [trimethobenzamide]
- DILI +VE (5-8), DILI -VE (-4) [1]: -VE
- DILI severity category [2]: Ambiguous DILI-concern

Molecule: CCC[C@@H]1C[C@@H](C(=O)N[C@@H]([C@H]2O[C@H](SC)[C@H](O)[C@@H](O)[C@H]2O)[C@@H](C)O)N(C)C1 [lincomycin]
- DILI +VE (5-8), DILI -VE (-4) [3]: -VE
- DILI severity category [4]: Ambiguous DILI-concern

Molecule: CN(C)CCC=C1c2ccccc2COc2ccccc21 [doxepin]
- DILI +VE (5-8), DILI -VE (-4) [3]: +VE
- DILI severity category [4]: vLess-DILI-Concern

Molecule: COc1c(C)c2c(c(O)c1C/C=C(\C)CCC(=O)O)C(=O)OC2 [mycophenolic acid]
- DILI +VE (5-8), DILI -VE (-4) [1]: -VE
- DILI severity category [2]: Ambiguous DILI-concern

Molecule: colistimethate
- DILI +VE (5-8), DILI -VE (-4) (in vivo): -VE
- DILI severity category (in vivo): vNo-DILI-Concern

Molecule: OC[C@H]1O[C@@H](O[C@@H]2[C@@H](CO)OC(O)(CO)[C@H]2O)[C@H](O)[C@@H](O)[C@H]1O (mixture of isomers) [lactulose]
- DILI +VE (5-8), DILI -VE (-4) [3]: -VE
- DILI severity category [4]: vNo-DILI-Concern

Molecule: CC(C)CN(C[C@@H](O)[C@H](Cc1ccccc1)NC(=O)O[C@H]1CCOC1)S(=O)(=O)c1ccc(N)cc1 [amprenavir]
- DILI severity category [5]: Ambiguous DILI-concern
- DILI +VE (5-8), DILI -VE (-4) [6]: -VE

Molecule: C[C@H](Cc1cc2c(c(C(N)=O)c1)N(CCCO)CC2)NCCOc1ccccc1OCC(F)(F)F [silodosin]
- DILI +VE (5-8), DILI -VE (-4) [1]: -VE
- DILI severity category [2]: Ambiguous DILI-concern

Molecule: CC(=O)O[C@H]1C[C@@H]2CC[C@@H]3[C@H](CC[C@@]4(C)[C@H]3C[C@H]([N+]3(C)CCCCC3)[C@@H]4OC(C)=O)[C@@]2(C)C[C@@H]1N1CCCCC1 [vecuronium]
- DILI severity category [5]: vNo-DILI-Concern
- DILI +VE (5-8), DILI -VE (-4) [7]: -VE

Molecule: NS(=O)(=O)c1cc(C2(O)NC(=O)c3ccccc32)ccc1Cl (centres unmarked) [chlorthalidone]
- DILI severity category [5]: Ambiguous DILI-concern
- DILI +VE (5-8), DILI -VE (-4) [6]: -VE

Molecule: CC[C@@]1(O)C(=O)OCc2c1cc1n(c2=O)Cc2cc3c(CN(C)C)c(O)ccc3nc2-1 [topotecan]
- DILI +VE (5-8), DILI -VE (-4) [1]: -VE
- DILI severity category [2]: vNo-DILI-Concern

Molecule: C[C@@H](Cc1ccccc1)N(C)Cc1ccccc1 [benzphetamine]
- DILI +VE (5-8), DILI -VE (-4) (in vivo): -VE
- DILI severity category (in vivo): vNo-DILI-Concern

Molecule: Nc1nc(N)c2nc(-c3ccccc3)c(N)nc2n1 [triamterene]
- DILI +VE (5-8), DILI -VE (-4) [1]: +VE
- DILI severity category [2]: vLess-DILI-Concern

Molecule: O=C(O)COc1nn(Cc2ccccc2)c2ccccc12 [bendazac]
- DILI severity category [5]: vMost-DILI-Concern

Molecule: CN1CC[C@]23CCCC[C@H]2[C@H]1Cc1ccc(O)cc13 [levorphanol]
- DILI +VE (5-8), DILI -VE (-4) [3]: -VE
- DILI severity category [4]: vNo-DILI-Concern

Molecule: CC1=C(/C=C/C(C)=C/C=C/C(C)=C/CO)C(C)(C)CCC1 [vitamin a]
- DILI severity category [5]: vLess-DILI-Concern
- DILI +VE (5-8), DILI -VE (-4) [7]: +VE
